The source of these data is patent US6191127A, “Substituted heterocycles and their use in medicaments” (Schering Aktiengesellschaft, priority 1997, dated 2001).

In general, IC50 refers to the concentration at which inhibition is half-maximal.

Common to all, as to assay type: biochemical
Assay [1] concerns the target recombinant human endothelial NO-synthases (ecNOS) (Homo sapiens, UniProt P29474). Briefly: Inhibition assay with recombinant human endothelial NO-synthases (ecNOS). To be noted: substrate [3H]-arginine; analogously to bcNOS. The text has this:
(§1) The NOS-inhibitory action of the compounds of Formula I and their physiologically compatible salts can be determined with the variants that are mentioned below according to the methods by Bredt and Snyder in Proc. Natl. Acad. Sci. USA (1989) 86, 9030.
(§2) Inhibition assay with recombinant human brain NO-synthases (bcNOS). (Concentration: 0.022 IU/l). Measured parameters: % inhibition by test compound. Substrate: [3H]-arginine (concentration 4.4E-08 mol/l). Analogously to recombinant human endothelial NO-synthases (ecNOS) and recombinant human inducible NO-synthases (iNOS).

Assay [2] addresses recombinant human inducible NO-synthases (iNOS) (Homo sapiens, UniProt P35228). Briefly: Inhibition assay with recombinant human inducible NO-synthases (iNOS). To be noted: substrate [3H]-arginine; analogously to bcNOS.
From the text: as §1, §2

Assay [3] concerns the target recombinant human brain NO-synthases (bcNOS) (Homo sapiens, UniProt P29475). Briefly: Inhibition assay with recombinant human brain NO-synthases (bcNOS). The settings on record: substrate [3H]-arginine 4.4E-08 mol/l; bcNOS 0.022 IU/l.
From the text: as §1, §2

Turning to `Cc1cc2c(cc1C)OC(C)C(N)=N2` (stereo not drawn) [2,6,7-Trimethyl-3-amino-1,4-benzoxazine], the concentration for half-maximal inhibition (IC50) in assay [1] is greater than 10 µM; in assay [2] it was greater than 100 µM; in assay [3] it was 3 µM.
The corresponding values for `Cc1cccc2c1OC(C)C(N)=N2` (stereo not drawn) [2,8-Dimethyl-3-amino-1,4-benzoxazine] are greater than 100 µM, greater than 10 µM and 20 µM.
With `CCCC1Oc2ccccc2N=C1N` (stereo not drawn) [2-n-Propyl-3-amino-1,4-benzoxazine], the IC50 in assay [1] was greater than 10 µM; in assay [2], greater than 100 µM; in assay [3], 1.2 µM.
